Where a name gives a salt, the structure may show the parent alone.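 96-well plates; 48 h exposure; 5 concentrations. Endpoints by linear interpolation between flanking doses. Not reached: highest tested concentration assigned. GI50: concentration for 50% inhibition of growth.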 Active and inactive are the calls of the source. No stated cut-off is given here; in the data, active = GI50 up to about 1.1 µM and inactive = higher.
What was measured:
Experiment in all cases: growth of human tumour cells (NCI), 48 h
MCF7 = test system: MCF7
SF-295 = test system: SF-295
RPMI-8226 = test system: RPMI-8226
786-0 = test system: 786-0
CAKI-1 = test system: CAKI-1
Malme-3M = test system: Malme-3M
MDA-MB-435 = test system: MDA-MB-435
Hs-578T = test system: Hs-578T
OVCAR-5 = test system: OVCAR-5
UACC-257 = test system: UACC-257
OVCAR-4 = test system: OVCAR-4
SK-OV-3 = test system: SK-OV-3
SNB-19 = test system: SNB-19
SF-268 = test system: SF-268
M14 = test system: M14
MOLT-4 = test system: MOLT-4
CCRF-CEM = test system: CCRF-CEM
NCI-H460 = test system: NCI-H460
SK-MEL-28 = test system: SK-MEL-28

Measured: GI50

Cc1nnc2n1N=C(c1ccccc1)/C(=C/c1ccc(-c3ccc(Cl)cc3)o1)S2
inactive: MCF7 2.11 µM | SF-295 15.9 µM | RPMI-8226 5.11 µM | 786-0 13.1 µM | CAKI-1 15.1 µM | Malme-3M 17.3 µM | MDA-MB-435 4.61 µM | Hs-578T 54.3 µM | OVCAR-5 20.6 µM | UACC-257 16.6 µM | OVCAR-4 15.7 µM | SK-OV-3 32.1 µM | SNB-19 16.6 µM | SF-268 14.3 µM | M14 17.9 µM | MOLT-4 3.55 µM | CCRF-CEM 2.71 µM | NCI-H460 15.1 µM

CCN1C(=O)C(=C/C=C/C=C2/N(C)c3ccccc3C2(C)C)C(=O)N(CC)C1=S
inactive: MCF7 > 100 µM | SF-295 61.5 µM | RPMI-8226 > 100 µM | 786-0 42.2 µM | CAKI-1 > 100 µM | Malme-3M > 100 µM | MDA-MB-435 > 100 µM | Hs-578T > 100 µM | OVCAR-5 > 100 µM | UACC-257 56.1 µM | OVCAR-4 33 µM | SK-OV-3 36.3 µM | SNB-19 > 100 µM | SF-268 99.3 µM | M14 > 100 µM | CCRF-CEM > 100 µM | NCI-H460 38.9 µM

Clc1cc(OCc2nn3c(Cc4ccccc4)nnc3s2)ccc1OCc1nn2c(Cc3ccccc3)nnc2s1
inactive: MCF7 50.4 µM | SF-295 19.5 µM | RPMI-8226 49.7 µM | 786-0 19.5 µM | CAKI-1 21.1 µM | Malme-3M 37.5 µM | MDA-MB-435 51.6 µM | Hs-578T 48.9 µM | OVCAR-5 51.5 µM | UACC-257 > 100 µM | OVCAR-4 19.4 µM | SK-OV-3 26.7 µM | SNB-19 24.6 µM | SF-268 29.8 µM | M14 87.7 µM | MOLT-4 34.4 µM | SK-MEL-28 42.2 µM | NCI-H460 65.8 µM

N#Cc1cc(-c2nc3ccc(F)cc3s2)ccc1N
inactive: MCF7 18 µM | SF-295 > 100 µM | RPMI-8226 > 100 µM | 786-0 > 100 µM | CAKI-1 > 100 µM | Malme-3M 35.3 µM | MDA-MB-435 17.7 µM | Hs-578T > 100 µM | OVCAR-5 > 100 µM | UACC-257 > 100 µM | OVCAR-4 > 100 µM | SK-OV-3 21.8 µM | SNB-19 > 100 µM | SF-268 > 100 µM | M14 > 100 µM | MOLT-4 > 100 µM | CCRF-CEM > 100 µM | NCI-H460 > 100 µM

CN(C)CCC=C1c2ccccc2C=Cc2ccccc21 [CYCLOBENZAPRINE HYDROCHLORIDE]
inactive: MCF7 16.3 µM | SF-295 17.2 µM | RPMI-8226 18.3 µM | 786-0 16.1 µM | CAKI-1 17 µM | Malme-3M 16.9 µM | MDA-MB-435 16.7 µM | Hs-578T 18.8 µM | OVCAR-5 15 µM | UACC-257 14.8 µM | OVCAR-4 23.1 µM | SK-OV-3 16.1 µM | SNB-19 19.8 µM | SF-268 15.8 µM | M14 15.8 µM | MOLT-4 16.8 µM | SK-MEL-28 16.1 µM | NCI-H460 15.4 µM

NC(CC(=O)Nc1cc(C(F)(F)F)ccc1Cl)=NO
inactive: MCF7 > 100 µM | SF-295 > 100 µM | RPMI-8226 > 100 µM | 786-0 > 100 µM | CAKI-1 > 100 µM | Malme-3M > 100 µM | MDA-MB-435 > 100 µM | Hs-578T > 100 µM | OVCAR-5 > 100 µM | UACC-257 > 100 µM | OVCAR-4 > 100 µM | SK-OV-3 > 100 µM | SNB-19 > 100 µM | SF-268 > 100 µM | M14 > 100 µM | MOLT-4 > 100 µM | SK-MEL-28 > 100 µM | NCI-H460 > 100 µM

CC(C)(C)c1cc[n+](C[n+]2ccc(C(C)(C)C)cc2)cc1
inactive: MCF7 > 100 µM | SF-295 > 100 µM | RPMI-8226 > 100 µM | 786-0 > 100 µM | CAKI-1 > 100 µM | Malme-3M > 100 µM | MDA-MB-435 > 100 µM | Hs-578T > 100 µM | OVCAR-5 > 100 µM | OVCAR-4 > 100 µM | SK-OV-3 > 100 µM | SNB-19 > 100 µM | SF-268 > 100 µM | M14 > 100 µM | MOLT-4 > 100 µM | SK-MEL-28 > 100 µM | CCRF-CEM > 100 µM | NCI-H460 > 100 µM

C/C(=N\c1c2ccccc2nc2ccccc12)N(C)C
inactive: MCF7 25.8 µM | SF-295 14.8 µM | RPMI-8226 13.6 µM | 786-0 24.2 µM | CAKI-1 24.3 µM | Malme-3M 32.9 µM | MDA-MB-435 22.5 µM | Hs-578T 22 µM | OVCAR-5 20.5 µM | UACC-257 16.9 µM | OVCAR-4 19 µM | SK-OV-3 22.8 µM | SNB-19 34 µM | SF-268 27.4 µM | M14 11.5 µM | MOLT-4 12.2 µM | SK-MEL-28 18.4 µM | CCRF-CEM 8.87 µM

CN(C)Cc1ccc(-c2cc3onc(-c4ccccc4)c3c(=O)n2C)cc1
inactive: MCF7 41.2 µM | SF-295 22.9 µM | RPMI-8226 19.4 µM | 786-0 17.3 µM | CAKI-1 85.3 µM | Malme-3M 29 µM | MDA-MB-435 19.2 µM | Hs-578T 19.6 µM | OVCAR-5 40.6 µM | UACC-257 18.3 µM | OVCAR-4 84.9 µM | SK-OV-3 48.8 µM | SNB-19 57.8 µM | SF-268 31.2 µM | M14 15.1 µM | MOLT-4 17.8 µM | SK-MEL-28 18.9 µM | NCI-H460 17.5 µM

CCN(CC)CCN(/C(=N/c1ccccc1)N1CCCCC1)c1ccccc1
inactive: MCF7 5.53 µM | SF-295 3.62 µM | RPMI-8226 2.54 µM | 786-0 26.1 µM | CAKI-1 27.8 µM | Malme-3M 15.5 µM | MDA-MB-435 3.91 µM | Hs-578T 10.3 µM | UACC-257 10.6 µM | OVCAR-4 3.87 µM | SK-OV-3 11.9 µM | SNB-19 17.8 µM | SF-268 27.6 µM | M14 6.34 µM | MOLT-4 2.99 µM | SK-MEL-28 16.2 µM | CCRF-CEM 4.49 µM | NCI-H460 4.78 µM

CC(=O)N/N=C1\NC(=O)C[C@H]2[C@@H]3CC=C4C[C@@H](OC(C)=O)CC[C@]4(C)[C@H]3CC[C@]12C
inactive: MCF7 46.9 µM | SF-295 14.1 µM | RPMI-8226 24.3 µM | 786-0 16 µM | CAKI-1 > 100 µM | Malme-3M 39.1 µM | MDA-MB-435 4.06 µM | Hs-578T 17.8 µM | OVCAR-5 > 100 µM | UACC-257 18.7 µM | OVCAR-4 11.2 µM | SK-OV-3 21.1 µM | SNB-19 17.4 µM | SF-268 27.7 µM | M14 30.8 µM | MOLT-4 > 100 µM | SK-MEL-28 13.4 µM | CCRF-CEM > 100 µM

Reference: ChEMBL document CHEMBL1201862, “PubChem BioAssay data set” (2004)
